# Measurements published in ChEMBL document CHEMBL2385047, “Synthesis and antifungal evaluation of pentyloxyl-diphenylisoxazoloyl pneumocandins and echinocandins” (Bioorg Med Chem Lett, 2013).
# Numbered stars: 1 amine (or outer) side, 2 acyl side, 3 side chain; on linkers, the order of the positions; unused ones are H or OH. Bridge positions count the residues as written; N and C are the ends. Square brackets hold non-standard residues; d marks the D form. Peptide text beside a SMILES is read from it. * marks the point of attachment. Orn(4R-OH,5R-OH) = O=C([C@H](C[C@@H](O)[C@@H](O)N[*:3])N[*:1])[*:2]; Tetradecanoyl(10R,12S-Me2) = CC[C@H](C)C[C@H](C)CCCCCCCCC(=O)*; hTyr(3S-OH,4S-OH) = N[C@H](C(=O)O)[C@H](O)[C@@H](O)c1ccc(O)cc1; Pro(3S-OH,4S-Me) = C[C@H]1CN[C@H](C(=O)O)[C@H]1O; X1 = CCCCCOc1ccc(-c2cc(-c3ccc(C(=O)*)cc3)no2)cc1; Gln(3R-OH) = NC(=O)C[C@@H](O)[C@H](N)C(=O)O; Pro(3S-OH) = O=C(O)[C@H]1NCC[C@@H]1O; Hyp = O=C(O)[C@@H]1C[C@@H](O)CN1
# Columns and labels:
# Beta-1,3-glucan synthase = biological target: T1, Beta-1,3-glucan synthase (Candida albicans, UniProt O13383); experiment: Inhibition of wild type Candida albicans 1,3-beta-D-glucan synthase using UDP[6,3H]-glucose as substrate after 60 mins by liquid scintillation counting analysis
# T1 sequence (O13383 whole entry): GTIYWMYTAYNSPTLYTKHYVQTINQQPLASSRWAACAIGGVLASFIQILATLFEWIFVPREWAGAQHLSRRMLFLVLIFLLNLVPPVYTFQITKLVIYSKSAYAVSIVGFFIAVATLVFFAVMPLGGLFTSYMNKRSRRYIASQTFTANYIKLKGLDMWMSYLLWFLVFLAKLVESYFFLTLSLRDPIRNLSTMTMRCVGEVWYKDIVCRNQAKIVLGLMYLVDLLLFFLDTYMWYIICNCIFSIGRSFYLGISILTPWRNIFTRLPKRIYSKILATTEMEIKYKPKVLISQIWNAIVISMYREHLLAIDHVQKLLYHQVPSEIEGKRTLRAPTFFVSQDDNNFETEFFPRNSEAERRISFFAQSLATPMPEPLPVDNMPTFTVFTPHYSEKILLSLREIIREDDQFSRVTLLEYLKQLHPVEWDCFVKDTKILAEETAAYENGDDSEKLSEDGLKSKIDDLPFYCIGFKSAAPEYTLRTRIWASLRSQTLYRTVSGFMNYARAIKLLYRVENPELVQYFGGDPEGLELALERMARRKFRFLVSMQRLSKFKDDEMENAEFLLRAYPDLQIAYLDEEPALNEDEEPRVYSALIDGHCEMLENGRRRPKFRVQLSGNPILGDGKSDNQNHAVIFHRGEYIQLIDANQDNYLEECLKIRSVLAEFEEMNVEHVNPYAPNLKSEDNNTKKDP
# Candida albicans [1] = experiment: Antifungal activity against Candida albicans CAI4-R1 assessed as growth inhibition after 24 hrs by NCCLS broth microdilution method; format: functional; conditions: CAI4-R1, 24 h; for MIC: read-out: MIC100
# Staphylococcus aureus = experiment: Antibacterial activity against methicillin-sensitive Staphylococcus aureus MB2865 assessed as growth inhibition after 24 hrs by NCCLS broth microdilution method; format: functional; conditions: MB2865, 24 h, read-out: MIC100
# [2] = system: Meyerozyma guilliermondii; experiment: Antifungal activity against wild type Candida guilliermondii CLY308 assessed as growth inhibition after 24 hrs by NCCLS broth microdilution method; format: functional; conditions: CLY308, 24 h; for MIC: read-out: MIC100
# Candida albicans [3] = experiment: Antifungal activity against wild type Candida albicans MY1055 assessed as growth inhibition after 24 hrs by NCCLS broth microdilution method; format: functional; conditions: MY1055, 24 h; for MIC: read-out: MIC100
# Escherichia coli = experiment: Antibacterial activity against Escherichia coli ATCC 25922 assessed as growth inhibition after 24 hrs by NCCLS broth microdilution method; format: functional; conditions: ATCC 25922, 24 h, read-out: MIC100
# Cryptococcus neoformans = experiment: Antifungal activity against capsular wild type Cryptococcus neoformans MY2061 assessed as growth inhibition after 24 hrs by NCCLS broth microdilution method; format: functional; conditions: MY2061, 24 h, read-out: MIC100
# Candida parapsilosis = experiment: Antifungal activity against wild type Candida parapsilosis ATCC 22019 assessed as growth inhibition after 24 hrs by NCCLS broth microdilution method; format: functional; conditions: Lodderomyces parapsilosis, ATCC 22019, 24 h; for MIC: read-out: MIC100
# Candida albicans [4] = experiment: Antifungal activity against Candida albicans NR3 assessed as growth inhibition after 24 hrs by NCCLS broth microdilution method; format: functional; conditions: NR3, 24 h; for MIC: read-out: MIC100
# Nakaseomyces glabratus = experiment: Antifungal activity against wild type Candida glabrata MY1381 assessed as growth inhibition after 24 hrs by NCCLS broth microdilution method; format: functional; conditions: MY1381, 24 h; for MIC: read-out: MIC100
# Clavispora lusitaniae = experiment: Antifungal activity against wild type Candida lusitaniae MY1396 assessed as growth inhibition after 24 hrs by NCCLS broth microdilution method; format: functional; conditions: MY1396, 24 h; for MIC: read-out: MIC100
# Candida albicans [5] = experiment: Antifungal activity against wild type Candida albicans MY1055 assessed as growth inhibition after 24 hrs by NCCLS broth microdilution method in presence of human serum; format: functional; conditions: MY1055, 24 h; for MIC: read-out: MIC100
# Pichia kudriavzevii = experiment: Antifungal activity against wild type Candida krusei CLY549 assessed as growth inhibition after 24 hrs by NCCLS broth microdilution method; format: functional; conditions: CLY549, 24 h; for MIC: read-out: MIC100
# Candida albicans [6] = experiment: Antifungal activity against wild type Candida albicans CAI4 assessed as growth inhibition after 24 hrs by NCCLS broth microdilution method; format: functional; conditions: CAI4, 24 h; for MIC: read-out: MIC100
# Aspergillus fumigatus = experiment: Antifungal activity against Aspergillus fumigatus MF5668 caspofungin spontaneous resistance mutant assessed as growth inhibition after 24 hrs by NCCLS broth microdilution method; format: functional; conditions: MF5668, 24 h; for minimal effective concentration: read-out: MEC
# Candida albicans [7] = experiment: Antifungal activity against Candida albicans MY1055 infected in DBA/2 mouse assessed as reduction of log CFU in kidney administered 30 mins as ip tid post infection measured after 24 hrs; format: functional
Structure (SMILES),MIC80 (Candida albicans [1]) [µg/mL],MIC (Candida albicans [1]) [µg/mL],MIC (Staphylococcus aureus) [µg/mL],MIC80 [2] [µg/mL],MIC [2] [µg/mL],MIC80 (Candida albicans [3]) [µg/mL],MIC (Candida albicans [3]) [µg/mL],MIC (Escherichia coli) [µg/mL],MIC (Cryptococcus neoformans) [µg/mL],MIC80 (Candida parapsilosis) [µg/mL],MIC (Candida parapsilosis) [µg/mL],MIC (Candida albicans [4]) [µg/mL],MIC (Nakaseomyces glabratus) [µg/mL],MIC80 (Clavispora lusitaniae) [µg/mL],MIC (Clavispora lusitaniae) [µg/mL],MIC80 (Candida albicans [5]) [µg/mL],MIC (Candida albicans [5]) [µg/mL],MIC80 (Pichia kudriavzevii) [µg/mL],MIC (Pichia kudriavzevii) [µg/mL],MIC80 (Candida albicans [6]) [µg/mL],other results
"CCCCCOc1ccc(-c2cc(-c3ccc(C(=O)N[C@H]4C[C@@H](O)[C@@H](O)NC(=O)[C@@H]5[C@@H](O)[C@@H](C)CN5C(=O)[C@H]([C@@H](C)O)NC(=O)[C@H]([C@H](O)[C@@H](O)c5ccc(O)cc5)NC(=O)[C@@H]5C[C@@H](O)CN5C(=O)[C@H]([C@@H](C)O)NC4=O)cc3)no2)cc1 (X1-[Orn(4R-OH,5R-OH)]T[Hyp][hTyr(3S-OH,4S-OH)]T[Pro(3S-OH,4S-Me)]; lactam 1-C)",1,8,> 32,2,4,0.06,0.5,> 32,> 32,4,32,16,1,0.125,1,0.5,2,0.5,1,< 0.03,"IC50 (Beta-1,3-glucan synthase): 0.0044 µM; MIC80 (Candida albicans [4]): 4 µg/mL; MIC80 (Nakaseomyces glabratus): 0.25 µg/mL; MIC (Candida albicans [6]): 0.5 µg/mL; MIC80 (Aspergillus fumigatus): < 0.03 µg/mL; minimal effective concentration (Aspergillus fumigatus): > 32 µg/mL"
"CC[C@H](C)C[C@H](C)CCCCCCCCC(=O)N[C@H]1C[C@@H](O)[C@@H](O)NC(=O)[C@@H]2[C@@H](O)CCN2C(=O)[C@H]([C@H](O)CC(N)=O)NC(=O)[C@H]([C@H](O)[C@@H](O)c2ccc(O)cc2)NC(=O)[C@@H]2C[C@@H](O)CN2C(=O)[C@H]([C@@H](C)O)NC1=O ({Tetradecanoyl(10R,12S-Me2)}-[Orn(4R-OH,5R-OH)]T[Hyp][hTyr(3S-OH,4S-OH)][Gln(3R-OH)][Pro(3S-OH)]; lactam 1-C)",16,32,> 32,4,> 32,0.125,0.5,> 32,> 32,8,> 32,> 32,4,1,4,16,32,8,32,< 0.03,MIC (Candida albicans [6]): 0.5 µg/mL; MIC80 (Aspergillus fumigatus): 4 µg/mL; minimal effective concentration (Aspergillus fumigatus): > 32 µg/mL; ED90 (Candida albicans [7]): 2.71 mg/kg/day; ED99 (Candida albicans [7]): 13 mg/kg/day
"CC[C@H](C)C[C@H](C)CCCCCCCCC(=O)N[C@H]1C[C@@H](O)[C@@H](O)NC(=O)[C@@H]2[C@@H](O)[C@@H](C)CN2C(=O)[C@H]([C@H](O)CC(N)=O)NC(=O)[C@H]([C@H](O)[C@@H](O)c2ccc(O)cc2)NC(=O)[C@@H]2C[C@@H](O)CN2C(=O)[C@H]([C@@H](C)O)NC1=O ({Tetradecanoyl(10R,12S-Me2)}-[Orn(4R-OH,5R-OH)]T[Hyp][hTyr(3S-OH,4S-OH)][Gln(3R-OH)][Pro(3S-OH,4S-Me)]; lactam 1-C)",8,16,> 32,4,32,0.125,0.5,> 32,> 32,8,> 32,> 32,4,1,4,16,32,4,8,< 0.03,"IC50 (Beta-1,3-glucan synthase): 0.0176 µM; MIC80 (Candida albicans [4]): 32 µg/mL; MIC80 (Nakaseomyces glabratus): 2 µg/mL; MIC (Candida albicans [6]): 0.5 µg/mL; MIC80 (Aspergillus fumigatus): 4 µg/mL; minimal effective concentration (Aspergillus fumigatus): > 32 µg/mL; ED90 (Candida albicans [7]): 1.15 mg/kg/day; ED99 (Candida albicans [7]): 6.77 mg/kg/day"
"CCCCCOc1ccc(-c2cc(-c3ccc(C(=O)N[C@H]4C[C@@H](O)[C@@H](O)NC(=O)[C@@H]5[C@@H](O)[C@@H](C)CN5C(=O)[C@H]([C@H](O)CC(N)=O)NC(=O)[C@H]([C@H](O)[C@@H](O)c5ccc(O)cc5)NC(=O)[C@@H]5C[C@@H](O)CN5C(=O)[C@H]([C@@H](C)O)NC4=O)cc3)no2)cc1 (X1-[Orn(4R-OH,5R-OH)]T[Hyp][hTyr(3S-OH,4S-OH)][Gln(3R-OH)][Pro(3S-OH,4S-Me)]; lactam 1-C)",0.5,2,> 32,0.5,2,< 0.03,0.06,> 32,> 32,2,32,4,0.25,< 0.03,0.125,0.25,1,0.125,1,< 0.03,"IC50 (Beta-1,3-glucan synthase): 0.035 µM; MIC80 (Candida albicans [4]): 2 µg/mL; MIC80 (Nakaseomyces glabratus): 0.06 µg/mL; MIC (Candida albicans [6]): 0.06 µg/mL; MIC80 (Aspergillus fumigatus): < 0.03 µg/mL; minimal effective concentration (Aspergillus fumigatus): > 32 µg/mL; ED90 (Candida albicans [7]): 0.12 mg/kg/day; ED99 (Candida albicans [7]): 0.82 mg/kg/day"
